Test results: PMC9720492 (2022)

Test system: wHTel-26 (DNA, G4) TTAGGGTTAGGGTTAGGGTTAGGGTT
Assay: CD melting
Details: 100 mM KCl; 10 mM phosphate, 1 mM EDTA, pH 7.0; 20 µM DNA, D/N 5.0

Tm: 10–13 (±2) °C
SMILES: CCN(CC)CCC(=O)Nc1ccc2c(c1)C(=O)c1ccc(NC(=O)CCN(CC)CC)cc1C2=O
